The results in this text go back to ChEMBL document CHEMBL3414492, “Enhancing the cellular anti-proliferation activity of pyridazinones as c-met inhibitors using docking analysis” (Eur J Med Chem, 2015).

A short description of test [1]: Inhibition of cell proliferation of human EBC1 cells after 72 hrs by SRB assay. To be noted: EBC-1, 72 h. On the technique in general: In SRB staining, fixed cells bind dye roughly in proportion to their protein.
The subject of test [2] is EBC-1. Description: (§1) Inhibition of cell proliferation of human EBC1 cells at 10 uM after 72 hrs by SRB assay. Format: functional.
The target of test [3] is T1, Hepatocyte growth factor receptor (Homo sapiens, UniProt P08581). The test is described as follows: Inhibition of recombinant c-Met (unknown origin) using poly (Glu,Tyr)4:1 substrate incubated for 60 mins by ELISA method. (An ELISA detects its analyte on a solid surface through an enzyme-linked reagent.)
Test [4] has as its target T1, Hepatocyte growth factor receptor. The test is described as follows: Inhibition of recombinant c-Met (unknown origin) at 10 uM using poly (Glu,Tyr)4:1 substrate incubated for 60 mins by ELISA method.
The subject of test [5] is NCI-H661. The test is described as follows: Inhibition of cell proliferation of human NCI-H661 cells after 72 hrs by SRB assay. To be noted: NCI-H661, 72 h.
The subject of test [6] is SNU1. The test is described as follows: Inhibition of cell proliferation of human SNU1 cells after 72 hrs by SRB assay. The following applies: SNU1, 72 h.
Test [7] in a line: Inhibition of cell proliferation of human SNU5 cells after 72 hrs by SRB assay. The following applies: SNU-5, 72 h.
Test [8] can be described thus: Inhibition of cell proliferation of human MKN45 cells after 72 hrs by SRB assay. To be noted: MKN-45, 72 h.
Test [9] in a line: Inhibition of cell proliferation of human EBC1 cells at 1 uM after 72 hrs by SRB assay. To be noted: EBC-1, 72 h, read-out: INH.
Test [10] can be described thus: as §1. Format: functional. To be noted: EBC-1, 72 h.
Test [11] has as its target T1, Hepatocyte growth factor receptor. The test is described as follows: Inhibition of c-Met (unknown origin).
Test [12] has as its system EBC-1. The following applies: Homo sapiens, 1 uM.

Broadly, the IC50 is the concentration that gives 50% inhibition.

Active and inactive are the calls of the source. The calls are words filed in the database; no cut-off is given here.

With `CN(C)CCOCCOC(=O)Nc1cccc(Cn2nc(-n3ccc4ccc(F)cc43)ccc2=O)c1`, the IC50 in [1] is not above 1000 nM.

`CN(C)CCCCOC(=O)Nc1cccc(Cn2nc(Nc3ccccc3)ccc2=O)c1`: in test [2], the inhibition entry was “inactive”. For the same molecule, in test [1], the IC50 was more than 10000 nM.

`O=C(Nc1cccc(Cn2nc(-n3ccc4ccc(F)cc43)ccc2=O)c1)OCCCCn1cccn1`: in [1], the IC50 was not above 1000 nM.

`CN(C)CCOC(=O)Nc1cccc(Cn2nc(-n3ccc4ccc(F)cc43)ccc2=O)c1` came in with an IC50 in [1] not above 1000 nM. As to `CCOC(=O)Nc1cccc(Cn2nc(-n3ccc4ccc(F)cc43)ccc2=O)c1`, the concentration for half-maximal inhibition (IC50) in test [3] is more than 10000 nM. Turning to `COCCOc1ccc2c(OCCn3nc(-n4ccc5ccc(F)cc54)ccc3=O)ccnc2c1`, in test [1], 21.1 nM corresponded to half-maximal inhibition (IC50).

For `CN1CCN(CCCCCOC(=O)Nc2cccc(Cn3nc(-n4ccc5ccc(F)cc54)ccc3=O)c2)CC1`, in test [1], the IC50 is not above 1000 nM. Still for that read-out and setting: the figure for `COCCCOc1cnc(-c2cccc(Cn3nc(-n4ccc5ccc(F)cc54)ccc3=O)c2)nc1` is 272 nM.

For the molecule `CN(C)CCCOC(=O)Nc1cccc(Cn2nc(-n3ccc4ccc(F)cc43)ccc2=O)c1`, in test [1], the IC50 was not above 1000 nM. For the molecule `Cc1cccc(Nc2ccc(=O)n(Cc3cccc(NC(=O)OCCCCN(C)C)c3)n2)c1`, the inhibition result in test [2] was “inactive”. Take `Cc1ccccc1Nc1ccc(=O)n(Cc2ccc(NC(=O)OCCCCN(C)C)cc2)n1`: the half-maximal inhibitory concentration (IC50) in test [3] was more than 10000 nM. `CN(C)CCCCOC(=O)Nc1cccc(Cn2nc(Nc3ccc(F)cc3)ccc2=O)c1`: the inhibition result in test [2] is “inactive”. `CN(C)CCCCCOC(=O)Nc1cccc(Cn2nc(-n3ccc4ccc(F)cc43)ccc2=O)c1`: in [1], the IC50 is not above 100 nM. Still for that read-out and setting: for `CN(C)CCCCOC(=O)Nc1cccc(Cn2nc(-n3ccc4ccc(F)cc43)ccc2=O)c1` the value was not above 1000 nM. Take `CN(C)CCCCOC(=O)Nc1cccc(Cn2nc(Nc3cccc(Cl)c3)ccc2=O)c1`: the inhibition result in [2] is “inactive”. Turning to `CN(C)CCCCOC(=O)Nc1cccc(Cn2nc(Nc3ccc(C(F)(F)F)cc3)ccc2=O)c1`, in test [2], the inhibition result was “inactive”. Consider `CN(C)CCCCOC(=O)Nc1cccc(Cn2nc(Nc3ccccc3C(F)(F)F)ccc2=O)c1`, for which, in [2], the inhibition result was “inactive”. Besides, in [4], the inhibition came out at 63.4%. For the molecule `CN1CCN(CCCOC(=O)Nc2cccc(Cn3nc(-n4ccc5ccc(F)cc54)ccc3=O)c2)CC1`, the 50% inhibitory concentration (IC50) in test [5] is 1600 nM; in test [6], 3900 nM; in test [7], 1200 nM; in [8], 700 nM; in [1], not above 100 nM. As for `CN(C)CCCCOC(=O)Nc1cccc(Cn2nc(Nc3cc(F)cc(F)c3)ccc2=O)c1`, the inhibition entry in test [2] is “inactive”. On to `CN1CCN(CCCOc2cnc(-c3cccc(Cn4nc(-n5ccc6ccc(F)cc65)ccc4=O)c3)nc2)CC1`, for which the half-maximal inhibitory concentration (IC50) in test [1] was 198 nM.

On to `Cc1ccc(Nc2ccc(=O)n(Cc3cccc(NC(=O)OCCCCN(C)C)c3)n2)cc1`, for which the inhibition entry in [2] is “inactive”. In addition, the inhibition in [4] worked out at 55.5%. Consider `CN(C)CCCCOC(=O)Nc1cccc(Cn2nc(-n3ccc4ccccc43)ccc2=O)c1`, for which the inhibition at 1 µM in test [9] is less than 50%. The inhibition at 10 µM in [10] is more than 70%.

As to `Cc1ccccc1Nc1ccc(=O)n(Cc2ccccc2NC(=O)OCCCCN(C)C)n1`, the concentration for half-maximal inhibition (IC50) in [3] is more than 10000 nM. On to `CN(C)CCCCOC(=O)Nc1cccc(Cn2nc(Nc3cccc(C(F)(F)F)c3)ccc2=O)c1`, for which the inhibition entry in test [2] was “inactive”.

`O=C(Nc1cccc(Cn2nc(-n3ccc4ccc(F)cc43)ccc2=O)c1)OCCCCN1CCOCC1` registered an IC50 in test [1] not above 1000 nM. In test [11], `Nc1ccc(Cn2nc(Nc3ccccc3)ccc2=O)cc1` gave an IC50 of 10000 nM. With `COc1cnc(-c2cccc(Cn3nc(-n4ccc5ccc(F)cc54)ccc3=O)c2)nc1`, the inhibition result in test [12] was “inactive”. Besides, the IC50 in test [1] is more than 1000 nM. For the molecule `CN(C)CCCCOC(=O)Nc1cccc(Cn2nc(Nc3ccccc3F)ccc2=O)c1`, the inhibition result in test [2] was “inactive”.

Turning to `Cc1ccccc1Nc1ccc(=O)n(Cc2cccc(NC(=O)OCCCCN(C)C)c2)n1`, the inhibition entry in test [2] is “inactive”. As to `CN(C)CCCCOC(=O)Nc1cccc(Cn2nc(Nc3cccc(F)c3)ccc2=O)c1`, the inhibition entry in [2] is “inactive”. On to `COC(=O)CCCCOC(=O)Nc1cccc(Cn2nc(-n3ccc4ccc(F)cc43)ccc2=O)c1`, for which the 50% inhibitory concentration (IC50) in test [1] was more than 10000 nM. `CN1CCN(CCCCOC(=O)Nc2cccc(Cn3nc(-n4ccc5ccc(F)cc54)ccc3=O)c2)CC1` returned an IC50 in [1] not above 100 nM. In turn, `O=c1ccc(-n2ccc3ccc(F)cc32)nn1Cc1cccc(-c2ncc(OCCN3CCOCC3)cn2)c1` came in with an IC50 in [1] of 124 nM. The molecule `CN1CCN(CCOc2cnc(-c3cccc(Cn4nc(-n5ccc6ccc(F)cc65)ccc4=O)c3)nc2)CC1` came in with an IC50 in [1] of 130 nM.
